From patent publication US7491836B2, “Non-ionic surfactants for poorly soluble molecules” (AstraZeneca AB, priority 2003, dated 2009)
In brackets after ≈: the same amount, converted by molar mass. Like-named read-outs stand apart in the source and are kept apart here.

How the values were obtained:
[1] = tested on: dog blood erythrocyte suspension; test: Haemolytic activity, static method (erythrocyte suspension incubated with surfactant, haemoglobin analysed); assay type: cell-based; conditions: for Hemolysis: 40 min at 37° C.
Description: A static method for evaluating the haemolytic activity of compounds was used. In short, dog blood is processed to an erythrocyte suspension, which is then incubated (40 min at 37° C.) with varying concentrations of a surfactant. The incubation is terminated by centrifugation after which the plasma, now containing different amounts of haemoglobin, can be removed and analysed. The results obtained for various MePEG- and PEG mono-12-acyloxy-stearate esters compared with a reference substance (Tween 80), are summarized in tables 3-4.

CACO-2 cells = test: Epithelial cell interaction monitored as transepithelial electrical resistance (TEER); assay type: cell-based
Description: Possible interaction with epithelial cells in the form of CACO-2 cells monitored as transepitheliar electrical resistance (TEER) was studied for some of the compounds. In short, after an equilibration time of 60 min the buffer solution at the donor side was exchanged with a buffer solution containing a certain concentration of the surfactant and TEER was then measured after 8 hours.

physchem = test: physchem
Description: The solubilization capacity of the compounds of the invention and compounds of prior art for two poorly soluble (i.e. less than sparingly soluble) drug molecules, felodipine and griseofulvin, were tested. […] Sci., 1998, 87(2), 200-8]. The solubilization capacity for each surfactant was determined from the slope of the curve in a graph where the felodipine/griseofulvin concentration was plotted against the surfactant concentration at surfactant concentrations above CMC (critical micellar concentration).

[2] = cited from earlier work

| TEER after 8 hours exposure (CACO-2 cells; surfactant conc 0.1 mM) [%] | TEER after 8 hours exposure (CACO-2 cells; surfactant conc 1 mM) [%] | TEER after 8 hours exposure (CACO-2 cells; surfactant conc 10 mM) [%] | TEER after 8 hours exposure (CACO-2 cells; surfactant conc 50 mM) [%] | Compound | further results |
| --- | --- | --- | --- | --- | --- |
|  |  |  |  | CCCCCCC(O)CCCCCCCCCCC(=O)OCCOCCOCCOCCOCCOCCOCCOCCOCCOCCOCCOCCOC (stereo not shown) [MePEG550 12-hydroxystearate] | haemolysis (in words) ([1]; at 1 mM): profound hemolysis; Hemolysis ([1]; surfactant conc 1.0 mM): 25%; Hemolysis ([1]; surfactant conc 5.0 mM): 86%; Hemolysis ([1]; surfactant conc 10 mM): 79%; concentration causing total haemolysis ([1]; text summary of Tables 3-4): 5000 µM |
| 89 | 43 | 39 | 37 | CCCCCCC(CCCCCCCCCCC(=O)OCCOCCOCCOCCOCCOCCOCCOCCOCCOCCOCCOCCOCCO)OC(=O)CCCCC (stereo not shown) [PEG600 mono-12-hexanoyloxy-stearate] | Hemolysis ([1]; surfactant conc 0.6 mM): 83%; Hemolysis ([1]; surfactant conc 0.7 mM): 92% |
|  |  |  |  | CCCCCCCC(=O)OC(CCCCCC)CCCCCCCCCCC(=O)OCCOCCOCCOCCOCCOCCOCCOCCOCCOCCOCCOCCOCCO (stereo not shown) [PEG600 mono-12-octanoyloxy-stearate] | Hemolysis ([1]; surfactant conc 0.6 mM): 88%; Hemolysis ([1]; surfactant conc 0.7 mM): 102% |
|  |  |  |  | CCOC(=O)C1=C(C)NC(C)=C(C(=O)OC)C1c1cccc(Cl)c1Cl (stereo not shown) [felodipine] | solubility in water (physchem): 2.1 µM (≈ 0.807 µg/mL); solubility in water [2]: 0.8 µg/mL (≈ 2.08 µM) |
|  |  |  |  | COC1=CC(=O)C[C@@H](C)[C@]12Oc1c(Cl)c(OC)cc(OC)c1C2=O [griseofulvin] | solubility (physchem; water): ~23 µM (≈ 8.11 µg/mL); solubility in water [2]: approximately 8.1 μg/ml |
|  |  | 94 | 103 | MePEG1200 12-palmitoyloxy-stearate |  |
|  |  | 101 | 71 | MePEG1200 12-stearoyloxy-stearate |  |
|  |  | 96 | 99 | MePEG2000 12-palmitoyloxy-stearate |  |
|  |  | 98 | 96 | MePEG2000 12-stearoyloxy-stearate |  |
| 100 | 96 | 93 | 37 | PEG1500 mono-12-lauroyloxy-stearate | change in TEER / interaction with epithelial cells (in words) (CACO-2 cells; after 8 hours): substantial decrease in TEER |
| 104 | 100 | 104 | 98 | PEG1500 mono-12-myristoyloxy-stearate |  |
| 105 | 104 | 95 | 108 | PEG1500 mono-12-oleoyloxy-stearate |  |
| 98 | 105 | 103 | 101 | PEG1500 mono-12-palmitoyloxy-stearate |  |
| 98 | 104 | 103 | 108 | PEG1500 mono-12-stearoyloxy-stearate |  |
